In PubChem BioAssay AID248 (DTP/NCI, 2004):
Where “and” joins values, the source holds several entries; their conditions need not be identical. Identical values can stand only once. Inconclusive results and toxic doses are left out. Rule as the data show it: active = T/C of 150% or more; inactive = T/C below 125%.

Test system: L1210 leukemia ip in BDF1 mice, survival T/C
Assay: NCI In Vivo Anticancer Drug Screen. Data for tumor model L1210 Leukemia (intraperitoneal) in B6D2F1 (BDF1) mice
Settings: endpoint: mean survival time, higher = longer survival
Outline: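 Survival endpoint. Drug-treated group vs vehicle group, expressed as T divided by C. Tumor passaged by transplantation.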

[1] = dose: 100.0 mg/kg/injection, schedule: Q01DX009 (ip), vehicle: saline with Tween-80
[2] = dose: 200.0 mg/kg/injection, schedule: Q01DX009 (ip), vehicle: saline with Tween-80
[3] = dose: 400.0 mg/kg/injection, schedule: Q01DX009 (ip), vehicle: saline with Tween-80
[4] = dose: 100.0 mg/kg/injection, schedule: Q01DX001 (ip), vehicle: saline
[5] = dose: 200.0 mg/kg/injection, schedule: Q01DX001 (ip), vehicle: saline
[6] = dose: 400.0 mg/kg/injection, schedule: Q01DX001 (ip), vehicle: saline
[7] = dose: 100.0 mg/kg/injection, schedule: Q01DX009 (ip), vehicle: Klucel (hydroxypropylcellulose) (HPC)
[8] = dose: 100.0 mg/kg/injection, schedule: Q04DX003 (ip), vehicle: Klucel (hydroxypropylcellulose) (HPC)
[9] = dose: 200.0 mg/kg/injection, schedule: Q01DX009 (ip), vehicle: Klucel (hydroxypropylcellulose) (HPC)
[10] = dose: 200.0 mg/kg/injection, schedule: Q04DX003 (ip), vehicle: Klucel (hydroxypropylcellulose) (HPC)
[11] = dose: 400.0 mg/kg/injection, schedule: Q01DX009 (ip), vehicle: Klucel (hydroxypropylcellulose) (HPC)
[12] = dose: 400.0 mg/kg/injection, schedule: Q04DX003 (ip), vehicle: Klucel (hydroxypropylcellulose) (HPC)
[13] = dose: 12.5 mg/kg/injection, schedule: Q01DX001 (ip), vehicle: saline
[14] = dose: 25.0 mg/kg/injection, schedule: Q01DX001 (ip), vehicle: saline
[15] = dose: 50.0 mg/kg/injection, schedule: Q01DX001 (ip), vehicle: carboxymethylcellulose (CMC)
[16] = dose: 100.0 mg/kg/injection, schedule: Q01DX001 (ip), vehicle: carboxymethylcellulose (CMC)
[17] = dose: 200.0 mg/kg/injection, schedule: Q01DX001 (ip), vehicle: carboxymethylcellulose (CMC)
[18] = dose: 400.0 mg/kg/injection, schedule: Q01DX001 (ip), vehicle: carboxymethylcellulose (CMC)

Measured: T/C

O=c1[nH]c(=O)n(CC(O)c2ccc(Cl)s2)cc1F (stereo unspecified)
inactive: [1] 100 % of control | dose: 100.0 mg/kg/injection, schedule: Q04DX003 (ip), vehicle: saline with Tween-80 100 % of control | [2] 101 % of control | dose: 200.0 mg/kg/injection, schedule: Q04DX003 (ip), vehicle: saline with Tween-80 96 % of control | [3] 95 % of control | dose: 400.0 mg/kg/injection, schedule: Q04DX003 (ip), vehicle: saline with Tween-80 97 % of control

O=C(Nc1ccc(Cl)c(Cl)c1)NC(CO)(CO)CO
inactive: [4] 100 % of control | [5] 94 % of control | [6] 94 % of control

CCOC(=O)C(C(=O)OCC)C1C=CCC1 (stereo unspecified)
inactive: [7] 104 % of control | [8] 98 % of control | [9] 96 % of control | [10] 97 % of control | [11] 91 % of control | [12] 108 % of control

C=C1CC2(CCC23COC(=O)C3=C)OC1=O (stereo unspecified)
inactive: dose: 1.56 mg/kg/injection, schedule: Q01DX001 (ip), vehicle: other 98 % of control | dose: 3.12 mg/kg/injection, schedule: Q01DX001 (ip), vehicle: other 102 % of control and 109 % of control | dose: 6.25 mg/kg/injection, schedule: Q01DX001 (ip), vehicle: other 105 % of control and 121 % of control | dose: 12.5 mg/kg/injection, schedule: Q01DX001 (ip), vehicle: other 102 % of control

Cc1ccc(S(=O)(=O)NC(C)(C)CN)cc1
inactive: dose: 75.0 mg/kg/injection, schedule: Q01DX001 (ip), vehicle: other 103 % of control | dose: 150.0 mg/kg/injection, schedule: Q01DX001 (ip), vehicle: other 101 % of control | dose: 300.0 mg/kg/injection, schedule: Q01DX001 (ip), vehicle: other 95 % of control

COc1ccc(C2CCC(=O)CC2C(=O)O)cc1 (stereo unspecified)
inactive: [7] 92 % of control | [8] 110 % of control | [9] 97 % of control | [10] 98 % of control | [11] 103 % of control | [12] 93 % of control

CCCCCCCCCCCCCCCC[N+]1(C)CCS(C)(OS(=O)(=O)OC)CC1 (stereo unspecified)
inactive: dose: 6.25 mg/kg/injection, schedule: Q01DX001 (ip), vehicle: saline 95 % of control | [13] 88 % of control | [14] 88 % of control

COC(=O)CC1(CC(=O)OC)C(=O)N(c2ccccc2)c2ccccc21
inactive: dose: 100.0 mg/kg/injection, schedule: Q01DX001 (ip), vehicle: Klucel (hydroxypropylcellulose) (HPC) 90 % of control | dose: 200.0 mg/kg/injection, schedule: Q01DX001 (ip), vehicle: Klucel (hydroxypropylcellulose) (HPC) 93 % of control | dose: 400.0 mg/kg/injection, schedule: Q01DX001 (ip), vehicle: Klucel (hydroxypropylcellulose) (HPC) 93 % of control

O=C(O)c1cccc2c1C(=O)c1cc([N+](=O)[O-])ccc1-2
inactive: dose: 75.0 mg/kg/injection, schedule: Q01DX001 (ip), vehicle: carboxymethylcellulose (CMC) 101 % of control | dose: 150.0 mg/kg/injection, schedule: Q01DX001 (ip), vehicle: carboxymethylcellulose (CMC) 105 % of control

CN(C)C(=O)Sc1ccc(S(=O)(=O)F)cc1[N+](=O)[O-]
inactive: [7] 110 % of control | [9] 102 % of control

O[Si](c1ccccc1)(c1ccccc1)c1ccccc1
inactive: [1] 95 % of control | dose: 100.0 mg/kg/injection, schedule: Q04DX002 (ip), vehicle: saline with Tween-80 100 % of control | [2] 88 % of control | dose: 200.0 mg/kg/injection, schedule: Q04DX002 (ip), vehicle: saline with Tween-80 96 % of control | [3] 91 % of control | dose: 400.0 mg/kg/injection, schedule: Q04DX002 (ip), vehicle: saline with Tween-80 87 % of control

O=C(O)c1cc([N+](=O)[O-])cc(P(=O)(O)O)c1
inactive: [13] 86 % of control | dose: 12.5 mg/kg/injection, schedule: Q04DX003 (ip), vehicle: saline 96 % of control | [14] 99 % of control | dose: 25.0 mg/kg/injection, schedule: Q04DX003 (ip), vehicle: saline 89 % of control | dose: 50.0 mg/kg/injection, schedule: Q01DX001 (ip), vehicle: saline 87 % of control | dose: 50.0 mg/kg/injection, schedule: Q04DX003 (ip), vehicle: saline 94 % of control | dose: 75.0 mg/kg/injection, schedule: Q01DX009 (ip), vehicle: saline 100 % of control | dose: 115.0 mg/kg/injection, schedule: Q01DX009 (ip), vehicle: saline 92 % of control

CCCCOB(OCCCC)c1ccc(SC)cc1
inactive: dose: 100.0 mg/kg/injection, schedule: Q04DX003 (ip), vehicle: alcohol 111 % of control | dose: 200.0 mg/kg/injection, schedule: Q04DX003 (ip), vehicle: alcohol 103 % of control | dose: 400.0 mg/kg/injection, schedule: Q04DX003 (ip), vehicle: alcohol 118 % of control

CC1=C(c2ccccc2)C(c2ccccc2)=C(C)C1=O
inactive: [15] 97 % of control | [16] 95 % of control | [17] 89 % of control | [18] 95 % of control

C1N2CN3CN1CN(C2)C3
inactive: [15] 104 % of control | [16] 104 % of control | dose: 100.0 mg/kg/injection, schedule: Q04DX002 (ip), vehicle: saline 100 % of control | [17] 112 % of control | dose: 200.0 mg/kg/injection, schedule: Q04DX002 (ip), vehicle: saline 100 % of control | [18] 101 % of control | dose: 400.0 mg/kg/injection, schedule: Q04DX002 (ip), vehicle: saline 114 % of control

O=C(O)c1ccccc1C(=O)NCCCc1ccccc1
inactive: dose: 100.0 mg/kg/injection, schedule: Q01DX001 (ip), vehicle: other 98 % of control | dose: 200.0 mg/kg/injection, schedule: Q01DX001 (ip), vehicle: other 98 % of control | dose: 400.0 mg/kg/injection, schedule: Q01DX001 (ip), vehicle: other 96 % of control

O=C(C(Cl)(Cl)Cl)C(Cl)(Cl)Cl
inactive: dose: 75.0 mg/kg/injection, schedule: Q01DX009 (ip), vehicle: saline with Tween-80 90 % of control | dose: 100.0 mg/kg/injection, schedule: Q04DX002 (ip), vehicle: Klucel (hydroxypropylcellulose) (HPC) 113 % of control | dose: 150.0 mg/kg/injection, schedule: Q01DX009 (ip), vehicle: saline with Tween-80 93 % of control | dose: 200.0 mg/kg/injection, schedule: Q04DX002 (ip), vehicle: Klucel (hydroxypropylcellulose) (HPC) 113 % of control | dose: 300.0 mg/kg/injection, schedule: Q01DX009 (ip), vehicle: saline with Tween-80 86 % of control | dose: 400.0 mg/kg/injection, schedule: Q04DX002 (ip), vehicle: Klucel (hydroxypropylcellulose) (HPC) 87 % of control

c1ccc(CN2C3C(c4ccccc4)=NN=C(c4ccccc4)C32)cc1 (stereo unspecified)
inactive: [4] 98 % of control | [5] 102 % of control | [6] 102 % of control

CCOc1ccc(NC(=S)NC(=O)c2ccco2)cc1
inactive: [1] 93 % of control | [8] 104 % of control | [2] 93 % of control | [10] 94 % of control | [12] 100 % of control

COc1cc([N+](=O)[O-])ccc1NC(=O)Oc1ccc(-c2ccccc2)cc1
inactive: [7] 95 % of control | [9] 95 % of control | [11] 98 % of control
